Results: patent US9676771B2, “Compounds for inhibiting drug-resistant strains of HIV-1 integrase” (priority 2013, dated 2017)
Read-outs that look alike come from different tables or passages of the source.

Tests used:
HIV-1 integrase = HIV-1 integrase (Human immunodeficiency virus type 1 group M subtype B, UniProt P12497); test: biochemical; type: biochemical
In short: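 Compounds or DMSO added to 20 nM DNA and 400 nM integrase in 50 mM MOPS pH 7.2, 7.5 mM MgCl2, 14 mM 2-mercaptoethanol; 2 h at 37° C, quenched with formamide/SDS loading buffer. Products resolved on gels, imaged and quantified by densitometry.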

in vitro = type: cell-based, human; conditions: human, 50% reduction in the level of ATP in HOS cells
In short: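 Cells exposed to compounds over a concentration range for 48 hrs at 37° C. Viability read as cellular ATP by luciferase (ATPlite) luminescence after lysis, normalised to untreated cells; CC50 derived by regression fit.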

[1] = system: HIV-1 constructs containing wild-type IN; test: microbe, parasite or virus in culture; type: cell-based; conditions: for EC50: Human immunodeficiency virus 1
[2] = system: HIV-1 constructs containing mutant IN G140S-Q148H; test: microbe, parasite or virus in culture; type: cell-based; conditions: for EC50: Human immunodeficiency virus 1
Excerpt: (§1) Single-Round HIV-1 Infectivity Assay.
(§2) Human embryonyl kidney cell culture cell line 293 was acquired from the American type Culture Collection (ATCC).
(§3) The virus-containing supernatants were then harvested, clarified by low-speed centrifugation, filtrated, and diluted for preparation in infection assays. […] Activity was normalized to infectivity in the absence of target compounds. KaleidaGraph (Synergy Software, Reading, Pa.) was used to perform regression analysis on the data. EC50 values were determined from the fit model.
(§4) pNLNgoMIVR^−ΔEnv.LUC has been described previously (Zhao et al. 2008). The integrase codon reading frame was removed from pNLNgoMIVR^−ΔEnv LUC (between KpnI and SalI sites) and placed between the KpnI and SalI sites of pBluescript II KS+. Using that construct as the wild-type template, we prepared the following HIV-1 Integrase-resistant mutants via the QuikChange II XL (Stratagene, La Jolla, Calif.) site-directed mutagenesis protocol: H51Y, T66I, E92Q, G118R, Y143R, Q148H, Q148K, N155H, R263K, G140S+Q148H, G140A+Q148K, E138K+Q148K, and H51Y+R263K. The following sense with cognate antisense (not shown) oligonucleotides (Integrated DNA Technologies, Coralville, Iowa) were used in the mutagenesis: H51Y, 5′-[…]-3; T66I, 5′-[…]-3′; E92Q, 5′-[…]-3′; G118R, 5′-[…]-3′; E138K, 5′-[…]-3; G140A, 5′-[…]-3; G140S, 5′-[…]-3′; Y143R, 5′-[…]-3′; Q148H, 5′-[…]-3′; Q148K, 5′-[…]-3; N155H, 5′-[…]-3′; R263K 5′-[…]-3′. The double mutation G140S+Q148H was constructed by using the previously generated Q148H mutant and the appropriate oligonucleotide for the 2nd mutation, G140S. The double mutation G140A+Q148K was made by using the Q148K mutant and the appropriate oligonucleotide for the 2nd mutation, G140A. The double mutation E138K+Q148K was made by using the Q148K mutant and the appropriate oligonucleotide for the 2nd mutation, E138K. The double mutation H51Y+R263K was constructed by using the previously generated H51Y mutant and the appropriate oligonucleotides for the 2nd mutation, R263K. The DNA sequence of each construct was verified independently by DNA sequence determination. […] These DNA sequences were additionally checked independently by DNA sequence determination.

[3] = system: HIV-1 constructs containing mutant IN N155H; test: microbe, parasite or virus in culture; type: cell-based; conditions: for EC50: Human immunodeficiency virus 1
Excerpt: as §1, §2, §3, §4

[4] = system: HIV-1 constructs containing mutant IN Y143R; test: microbe, parasite or virus in culture; type: cell-based; conditions: for EC50: Human immunodeficiency virus 1
Excerpt: as §1, §2, §3, §4

[5] = Table 1, 3′-processing, read-out: IC50 Values 3′-Processing
[6] = Table 1, strand transfer, read-out: IC50 Values Strand transfer
[7] = Table 3, WT IN, read-out: EC50 (nM, WT)
[8] = Table 3, G140S-Q148H double mutant, read-out: EC50 (nM, IN Mutants) SH
[9] = Table 3, read-out: EC50 (nM, IN Mutants) N155H
[10] = Table 3, read-out: EC50 (nM, IN Mutants) Y143R
[11] = Table 4, 3′-processing, read-out: IC50 (3^+-Processing)
[12] = Table 4, strand transfer, read-out: IC50 (Strand Transfer)
[13] = Table 7, 3′-processing, read-out: IC50 (μM) 3′-P
[14] = Table 7, strand transfer, read-out: IC50 (μM) ST
[15] = Table 8, WT IN, read-out: EC50 (nM, WT)
[16] = Table 8, read-out: EC50 (nM, IN mutants) G140S/Q148H
[17] = Table 8, read-out: EC50 (nM, IN mutants) N155H
[18] = Table 8, read-out: EC50 (nM, IN mutants) Y143R

Structure (SMILES)	CC50 (in vitro; Table 3) [nM]	EC50 [1, 7] [nM]	EC50 [2, 8] [nM]	EC50 [3, 9] [nM]	EC50 [4, 10] [nM]	IC50 (HIV-1 integrase; [11]) [µM]	IC50 (HIV-1 integrase; [12]) [µM]	IC50 (HIV-1 integrase; [13]) [µM]	IC50 (HIV-1 integrase; [14]) [µM]	CC50 (in vitro; Table 8) [nM]	EC50 [1, 15] [nM]	EC50 [2, 16] [nM]	EC50 [3, 17] [nM]	EC50 [4, 18] [nM]	other results
O=C(NCc1ccc(F)c(F)c1)c1c(O)c2cccnc2n(O)c1=O [XZ367, N-(3,4-difluorobenzyl)-1,4-dihydroxy-2-oxo-1,2-dihydro-1,8-naphthyridine-3-carboxamide]	192000 ± 19000	20 ± 6.2	507 ± 125	189 ± 70.1	44.5 ± 12.2	–	–	–	–	–	–	–	–	–	IC50 (HIV-1 integrase; [5]): 3.6 ± 0.6 µM; IC50 (HIV-1 integrase; [6]): 0.04 ± 0.01 µM; CC50 (in vitro; Table 2): 192000 nM; SI [1]: 9,585; Si (selectivity index) [1]: 9,585; EC50 ([1]; Table 2, cells infected with lentiviral vector harboring WT IN, read-out: EC50): 20 nM; Integrase Mutants SH (G140S-Q148H), fold-change in EC50 relative to WT [2]: 25 x; Integrase Mutants N155H, fold-change in EC50 relative to WT [3]: 9 x; Integrase Mutants Y143R, fold-change in EC50 relative to WT [4]: 2 x
CN(C)c1c(C(=O)NCc2ccc(F)cc2F)c(=O)n(O)c2ncccc12 [XZ372, N-(2,4-difluorobenzyl)-4-(dimethylamino)-1-hydroxy-2-oxo-1,2-dihydro-1,8-naphthyridine-3-carboxamide]	13000 ± 1800	268 ± 8.03	6800 ± 0.4	2300 ± 700	273 ± 51.7	21 ± 2	0.087 ± 0.012	–	–	–	–	–	–	–	Si (selectivity index) ([1]; Table 3, ratio of CC50 to EC50): 49
O=C(NCc1ccc(F)cc1F)c1c(N2CCOCC2)c2cccnc2n(O)c1=O [XZ373, N-(2,4-difluorobenzyl)-1-hydroxy-4-morpholino-2-oxo-1,2-dihydro-1,8-naphthyridine-3-carboxamide]	8400 ± 3200	1200 ± 260	6920 ± 2	3730 ± 920	1800 ± 870	77 ± 12	0.079 ± 0.013	–	–	–	–	–	–	–	Si (selectivity index) ([1]; Table 3, ratio of CC50 to EC50): 7
O=C(NCc1ccc(F)cc1F)c1c(NC2CCCCCC2)c2cccnc2n(O)c1=O [XZ376, 4-(cycloheptylamino)-N-(2,4-difluorobenzyl)-1-hydroxy-2-oxo-1,2-dihydro-1,8-naphthyridine-3-carboxamide]	68700 ± 8700	12.2 ± 2.9	35 ± 11.7	13.7 ± 3.8	6.6 ± 1.7	13.1 ± 1.1	0.46 ± 0.18	–	–	–	–	–	–	–	Si (selectivity index) ([1]; Table 3, ratio of CC50 to EC50): 4,804
O=C(NCc1ccc(F)cc1F)c1cc2cccnc2n(O)c1=O [XZ390, N-(2,4-difluorobenzyl)-1-hydroxy-2-oxo-1,2-dihydro-1,8-naphthyridine-3-carboxamide]	> 250000	5.1 ± 1.9	438 ± 121	134 ± 23	4.9 ± 0.77	–	–	–	–	–	–	–	–	–	IC50 (HIV-1 integrase; [5]): 6.1 ± 0.8 µM; IC50 (HIV-1 integrase; [6]): 0.041 ± 0.012 µM; Si (selectivity index) [1]: >25,000
COc1ccc2c(N)c(C(=O)NCc3ccc(F)cc3F)c(=O)n(O)c2n1 [XZ406, 4-amino-N-(2,4-difluorobenzyl)-1-hydroxy-7-methoxy-2-oxo-1,2-dihydro-1,8-naphthyridine-3-carboxamide]	–	–	–	–	–	18 ± 2	0.011 ± 0.002	–	–	–	–	–	–	–	CC50 (in vitro; Table 5): 2200 ± 430 nM; EC50 ([1]; Table 5, WT IN, read-out: EC50 (nM, WT)): 30.3 ± 9.1 nM; SI ([1]; Table 5, ratio of CC50 to EC50): 73; EC50 ([2]; Table 5, G1405-Q148H double mutant, read-out: EC50 (nM, IN Mutants) SH): 3600 ± 1600 nM; EC50 ([3]; Table 5, read-out: EC50 (nM, IN Mutants) N155H): 400 ± 101 nM; EC50 ([4]; Table 5, read-out: EC50 (nM, IN Mutants) Y143R): 62.2 ± 25.6 nM
Nc1c(C(=O)NCc2ccc(F)cc2F)c(=O)n(O)c2ncc(Br)cc12 [XZ418, 4-Amino-6-bromo-N-(2,4-difluorobenzyl)-1-hydroxy-2-oxo-1,2-dihydro-1,8-naphthyridine-3-carboxamide]	–	–	–	–	–	–	–	7.9 ± 0.8	0.0032 ± 0.0005	> 250000	0.99	112	18.8	1.95	–
Nc1c(C(=O)NCc2ccc(F)cc2F)c(=O)n(O)c2ncc(-c3ccccc3)cc12 [XZ420, 4-Amino-N-(2,4-difluorobenzyl)-1-hydroxy-2-oxo-6-phenyl-1,2-dihydro-1,8-naphthyridine-3-carboxamide]	–	–	–	–	–	–	–	17.9 ± 1.6	0.0016 ± 0.0003	184000	3.4 ± 0.7	39.6	18.7	3.7	–
O=C(NCc1ccc(F)cc1F)c1c(O)c2cc(CCCCCO)cnc2n(O)c1=O [XZ421, N-(2,4-Difluorobenzyl)-1,4-dihydroxy-6-(5-hydroxypentyl)-2-oxo-1,2-dihydro-1,8-naphthyridine-3-carboxamide]	–	–	–	–	–	–	–	14.3 ± 1.1	0.0124 ± 0.0026	> 250000	23.7	28.5	31.6	8.3	–
CN(C)CCCc1cnc2c(c1)c(N)c(C(=O)NCc1ccc(F)cc1F)c(=O)n2O [XZ425, 4-Amino-N-(2,4-difluorobenzyl)-6-(3-(dimethylamino)propyl)-1-hydroxy-2-oxo-1,2-dihydro-1,8-naphthyridine-3-carboxamide]	–	–	–	–	–	–	–	3 ± 0.4	0.0143 ± 0.0022	5000	6.07	31.7	29.4	7 ± 2.3	–
Nc1c(C(=O)NCc2ccc(F)cc2F)c(=O)n(O)c2ncc(CCCCCCOC(=O)c3ccccc3)cc12 [XZ427, 6-(5-Amino-6-((2,4-difluorobenzyl)carbamoyl)-8-hydroxy-7-oxo-7,8-dihydro-1,8-naphthyridin-3-yl)hexyl benzoate]	–	–	–	–	–	–	–	143 ± 14	3.34 ± 0.557	14400	4.8	21	5.4	3.5	–
